# Experimental data taken from patent publication US9278915B2, “Agonists of GPR40” (CONNEXIOS LIFE SCIENCES PVT LTD, priority 2010, dated 2016).
# Molecular target: T1, hGPR40 (Homo sapiens, UniProt O14842)
# T1 construct: expressed in transfected cells
# Assay: Calcium flux assay to detect GPR40 activation
# Format: cell-based
# Conditions: CHO-K cells stably expressing hGPR40; Fluo-4 NW; read for 4 min at 5 s intervals
# Procedure: Biological Activity Calium Flux Assay to Detect GPR40 Activation: CHO-K cells stably expressing hGPR40 were selected in a media containing Neomycin/G418. The cells were plated at a concentration of 20,000 cells per well in black 96-well clear bottom tissue culture treated plates. The cells were cultured for 24 h at 37° C. in a humidified 5% CO2 air environment to allow for protein expression. The next day, after removal of media from wells, Fluo-4 NW (Invitrogen) is added at 100 ul/well and the cells were incubated for 30 min at 37° C. and for a further 30 min at RT. All test compounds were diluted to appropriate concentrations in HEPES buffer. Compounds were added to the cells and the wells were read in the BioTEK synergy reader and readings were taken for 4 min with an interval of 5 s.
# T1 sequence (O14842 whole entry): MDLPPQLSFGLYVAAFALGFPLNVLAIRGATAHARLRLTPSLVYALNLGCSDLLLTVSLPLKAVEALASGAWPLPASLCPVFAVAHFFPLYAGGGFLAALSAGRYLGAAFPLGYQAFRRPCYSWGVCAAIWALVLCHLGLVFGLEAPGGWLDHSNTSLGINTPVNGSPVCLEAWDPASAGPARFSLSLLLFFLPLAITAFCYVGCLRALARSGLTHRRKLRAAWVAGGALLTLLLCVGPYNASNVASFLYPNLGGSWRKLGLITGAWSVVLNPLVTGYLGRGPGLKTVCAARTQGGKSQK
row,Compound,EC50 [nM]
1,"CON=C(COc1ccc(COc2ccc(C(C)(C)CC(=O)O)cc2)cc1)c1ccccc1 (mixture of isomers) [Compound 61, 3-{4-[(4-{[(2E,2Z)-2-(Methoxyimino)-2-phenylethyl]oxy}benzyl)oxy]phenyl}-3-methylbutanoic acid]",> 100
2,"CO/N=C(/c1ccccc1)c1cccc(CNc2ccc(C3CC3C(=O)O)cc2)c1 (racemic) [Compound 13, (1R,2R)-2-[4-({3-[(E,Z)-(Methoxyimino)(phenyl)methyl]benzyl}amino)phenyl]cyclopropanecarboxylic acid]",10 to 100
3,"CO/N=C(\COc1ccc(COc2ccc3c(c2)OCC3CC(=O)O)cc1)c1ccccc1 (centres unmarked) [Compound 73, {6-[(4-{[(2Z)-2-(Methoxyimino)-2-phenylethyl]oxy}benzyl)oxy]-2,3-dihydro-1-benzofuran-3-yl}acetic acid]",10 to 100
4,"CO/N=C(/COc1ccc(COc2ccc(COCC(=O)O)cc2)cc1)c1ccccc1 [Compound 30, ({4-[(4-{[(2E,2Z)-2-(Methoxyimino)-2-phenylethyl]oxy}benzyl)oxy]benzyl}oxy)acetic acid]",> 100
5,"CO/N=C(\COc1ccc(COc2ccc(CCC(=O)O)c(OC)c2)cc1)c1ccccc1 [Compound 37, 3-{2-Methoxy-4-[(4-{[(2Z)-2-(methoxyimino)-2-phenylethyl]oxy}benzyl)oxy]phenyl}propanoic acid]",> 100
6,"CO/N=C(\COc1ccc(COc2ccc(C(C#N)CC(=O)O)cc2)cc1)c1ccccc1 (centres unmarked) [Compound 18, Sodium 3-cyano-3-{4-[(4-{[(2Z)-2-(methoxyimino)-2-phenylethyl]oxy}benzyl)oxy]phenyl}propanoate]",< 10
7,"CON=C(COc1ccc(CNc2ccc(C3CC3C(=O)O)cc2)cc1)c1ccccc1 (mixture of isomers) [Compound 48, Sodium 2-{4-[(4-{[(2E,2Z)-2-(methoxyimino)-2-phenylethyl]oxy}benzyl)amino]phenyl}cyclopropanecarboxylate]",10 to 100
8,"CO/N=C(/COc1ccc(COc2ccc(-c3c(C(=O)O)noc3C)cc2)cc1)c1ccccc1 [Compound 32, 4-{4-[(4-{[(2E,2Z)-2-(Methoxyimino)-2-phenylethyl]oxy}benzyl)oxy]phenyl}-5-methyl-1,2-oxazole-3-carboxylic acid]",> 100
9,"CO/N=C(\COc1ccc(CNc2ccc(CCC(=O)O)cc2)cc1)c1ccccc1 [Compound 4, 3-{4-[(4-{[(2Z)-2-(Methoxyimino)-2-phenylethyl]oxy}benzyl)amino]phenyl}propanoic acid]",10 to 100
10,"CO/N=C(\COc1ccc(COc2ccc(CCC(=O)O)c(-c3cc(C)on3)c2)cc1)c1ccccc1 [Compound 65, 3-{4-[(4-{[(2Z)-2-(Methoxyimino)-2-phenylethyl]oxy}benzyl)oxy]-2-(5-methyl-1,2-oxazol-3-yl)phenyl}propanoic acid]",> 100
11,"CO/N=C(/COc1ccc(COc2ccc(C(CC(=O)O)c3ccon3)cc2)cc1)c1cccc(C)c1 (racemic) [Compound 24, 3-{4-[(4-{[(2E,2Z)-2-(Methoxyimino)-2-(3-methylphenyl)ethyl]oxy}benzyl)oxy]phenyl}-3-(1,2-oxazol-3-yl)propanoic acid]",10 to 100
12,"CO/N=C(\COc1ccc(COc2ccc(C(C#N)CC(=O)O)cc2)cc1)c1ccccc1 (centres unmarked) [Compound 16, 3-Cyano-3-{4-[(4-{[(2Z)-2-(methoxyimino)-2-phenylethyl]oxy}benzyl)oxy]phenyl}propanoic acid]",10 to 100
13,"CO/N=C(\COc1ccc(COc2ccc(C(C)(C#N)CC(=O)O)cc2)cc1)c1ccccc1 (centres unmarked) [Compound 59, 3-Cyano-3-{4-[(4-{[(2Z)-2-(methoxyimino)-2-phenylethyl]oxy}benzyl)oxy]phenyl}butanoic acid]",> 100
14,"CO/N=C(\COc1ccc(COc2ccc([C@H]3C[C@H]3C(=O)O)cc2)cc1)c1ccc(C#N)cc1 [Compound 63, (1R,2S)-2-{4-[(4-{[(2Z)-2-(4-Cyanophenyl)-2-(methoxyimino)ethyl]oxy}benzyl)oxy]phenyl}cyclopropanecarboxylic acid]",> 100
15,CO/N=C(\COc1cccc(CNc2ccc(CCC(=O)O)cc2)c1)c1ccccc1 [Compound 5],> 100
16,"CO/N=C(\COc1ccc(COc2ccc(C(CC(=O)O)c3ccon3)cc2)cc1)c1ccccc1 (centres unmarked) [Compound 29, Sodium 3-{4-[(4-{[(2Z)-2-(methoxyimino)-2-phenylethyl]oxy}benzyl)oxy]phenyl}-3-(1,2-oxazol-3-yl)propanoate]",< 10

# Now from value to molecule:
row,EC50 [nM],Compound
1,> 100,"CO/N=C(\COc1ccc(COc2ccc(CCC(=O)O)c(OCC#N)c2)cc1)c1ccccc1 [Compound 88, 3-{2-(Cyanomethoxy)-4-[(4-{[(2Z)-2-(methoxyimino)-2-phenylethyl]oxy}benzyl)oxy]phenyl}propanoic acid]"
2,> 100,"CO/N=C(\COc1ccc(-c2ccc(CCC(=O)O)cc2)cc1)c1ccccc1 [Compound 115, 3-(4′-{[(2Z)-2-(Methoxyimino)-2-phenylethyl]oxy}biphenyl-4-yl)propanoic acid]"
3,> 100,"CO/N=C(/COc1ccc(COc2ccc(C(C#N)CC(=O)O)cc2)cc1)C1CC1 (centres unmarked) [Compound 104, 3-Cyano-3-{4-[(4-{[(2E)-2-cyclopropyl-2-(methoxyimino)ethyl]oxy}benzyl)oxy]phenyl}propanoic acid]"
4,10 to 100,"O=C(O)CCc1ccc(OCc2ccc(OC/C(=N\OCc3ccccc3)c3ccccc3)cc2)cc1 [Compound 108, 3-(4-{[4-({(2E,2Z)-2-[(Benzyloxy)imino]-2-phenylethyl}oxy)benzyl]oxy}phenyl) propanoic acid]"
5,> 100,"CO/N=C(\COc1ccc(COc2ccc(CCC(=O)O)c(O)c2)cc1)c1ccccc1 [Compound 96, 3-{2-Hydroxy-4-[(4-{[(2Z)-2-(methoxyimino)-2-phenylethyl]oxy}benzyl)oxy]phenyl}propanoic acid]"
6,> 100,"CO/N=C(\COc1ccc(COc2ccc(CCC(=O)O)cc2)cc1)c1ccc(S(C)(=O)=O)cc1 [Compound 92, 3-(4-{[4-({(2Z)-2-(Methoxyimino)-2-[4-(methylsulfonyl)phenyl]ethyl}oxy)benzyl]oxy}phenyl)propanoic acid]"
7,> 100,"CO/N=C(\COc1ccc(COc2ccc(CCC(=O)O)cn2)cc1)c1ccccc1 [Compound 114, 3-{6-[(4-{[(2Z)-2-(Methoxyimino)-2-phenylethyl]oxy}benzyl)oxy]pyridin-3-yl}propanoic acid]"
8,> 100,"CO/N=C(\COc1ccc(COc2ccc(/C=C/C(=O)O)c(OC)c2)cc1)c1ccccc1 [Compound 95, (2E,2Z)-3-{2-Methoxy-4-[(4-{[(2Z)-2-(methoxyimino)-2-phenylethyl]oxy}benzyl)oxy]phenyl}prop-2-enoic acid]"
9,> 100,"CO/N=C(\COc1ccc(COc2ccc(CCC(=O)O)cc2)cc1)c1sc2c(c1C)C(C)(C)CCC2(C)C [Compound 106, 3-{4-[(4-{[(2E)-2-(Methoxyimino)-2-(3,4,4,7,7-pentamethyl-4,5,6,7-tetrahydro-1-benzothiophen-2-yl)ethyl]oxy}benzyl)oxy]phenyl}propanoic acid]"
10,> 100,"CO/N=C(\COc1ccc(COc2ccc(C(O)CC(=O)O)cc2)cc1)c1ccccc1 (centres unmarked) [Compound 118, 3-Hydroxy-3-{4-[(4-{[(2Z)-2-(methoxyimino)-2-phenylethyl]oxy}benzyl)oxy]phenyl}propanoic acid]"
